{"source": "patent US12637661B2", "about": "“Methods of enhancing stem cell differentiation into beta cells” (Vertex Pharmaceuticals Incorporated, priority 2018, dated 2026)", "key": {"[1]": {"system": "stage 5 cells of hESC line (D97, D114, and D241 HUES8)", "assay": "Stage 5 of directed differentiation of hESC line treated with EZH2 inhibitor, HDAC inhibitor or combination", "format": "cell-based, human", "conditions": "for percentage of pre-SC-β cells (C-PEP+, NKX6-1+): stage 5, FIG. 15; for performance compared with other inhibitors of the same class: stage 5, FIGS. 14 and 15; for proportion of all β cell types: stage 5, FIG. 14", "method": "The mRNA expression of NGN3 was investigated in each steps of directed differentiation described herein (FIG. 5), and it was observed that cells expressed NGN3 to initiate SC-β cell differentiation (FIG. 7). The effects of inhibition of histone methylation and deacetylation on SC-β cell differentiation were investigated (FIG. 6). Stage 5 of the directed differentiation as described herein (FIGS. 5-6) in hESC line (D97, D114, and […] HUES8) was treated with an EZH2 inhibitor (DZNep), HDAC inhibitor (KD5170), and a combination thereof (FIG. 6). Candidate inhibitor screening was performed as described in FIG. 18. Inhibition of EZH2 or HDAC in stage 5 (D97 HUES8) increased endocrine cells and SC-β cells (FIG. 8). […] SC-β cells comprised 35.4% at the end of stage 5 with DZNep and KD5170. […] Combined inhibition of EZH2 and HDAC in stage 5 was tested as described in FIG. 17. Combined inhibition of EZH2 and HDAC in stage 5 ([…] HUES8) increased Neorogenin3+ progenitors in stage 5 (FIGS. 12-13). Combined inhibition of EZH2 and HDAC in stage 5 increased NKX6.1+ progenitor cells (FIG. 16)."}, "EZH2": {"target": "EZH2 (Homo sapiens, UniProt Q15910)", "sequence (Q15910 whole entry, species assumed)": "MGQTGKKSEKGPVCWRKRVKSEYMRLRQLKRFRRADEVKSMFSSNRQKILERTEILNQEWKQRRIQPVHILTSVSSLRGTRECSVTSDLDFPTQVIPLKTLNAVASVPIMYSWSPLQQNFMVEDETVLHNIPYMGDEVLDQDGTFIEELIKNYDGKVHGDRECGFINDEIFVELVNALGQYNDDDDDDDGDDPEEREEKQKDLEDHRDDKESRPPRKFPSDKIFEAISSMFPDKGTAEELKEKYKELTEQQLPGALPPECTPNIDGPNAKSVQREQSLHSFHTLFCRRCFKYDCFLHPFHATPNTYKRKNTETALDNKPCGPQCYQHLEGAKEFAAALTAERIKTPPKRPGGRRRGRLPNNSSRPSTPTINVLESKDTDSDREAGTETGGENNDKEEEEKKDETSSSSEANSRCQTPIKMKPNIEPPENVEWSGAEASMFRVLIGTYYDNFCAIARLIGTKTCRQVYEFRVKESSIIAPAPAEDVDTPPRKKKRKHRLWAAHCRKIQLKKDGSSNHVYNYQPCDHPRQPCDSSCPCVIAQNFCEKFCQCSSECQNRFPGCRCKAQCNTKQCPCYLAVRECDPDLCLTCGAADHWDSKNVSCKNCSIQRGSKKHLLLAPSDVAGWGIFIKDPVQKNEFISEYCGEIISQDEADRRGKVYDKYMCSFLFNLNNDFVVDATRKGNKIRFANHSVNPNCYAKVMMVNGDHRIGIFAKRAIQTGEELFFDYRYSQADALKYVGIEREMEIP", "sequence (O75530 whole entry partner, species assumed)": "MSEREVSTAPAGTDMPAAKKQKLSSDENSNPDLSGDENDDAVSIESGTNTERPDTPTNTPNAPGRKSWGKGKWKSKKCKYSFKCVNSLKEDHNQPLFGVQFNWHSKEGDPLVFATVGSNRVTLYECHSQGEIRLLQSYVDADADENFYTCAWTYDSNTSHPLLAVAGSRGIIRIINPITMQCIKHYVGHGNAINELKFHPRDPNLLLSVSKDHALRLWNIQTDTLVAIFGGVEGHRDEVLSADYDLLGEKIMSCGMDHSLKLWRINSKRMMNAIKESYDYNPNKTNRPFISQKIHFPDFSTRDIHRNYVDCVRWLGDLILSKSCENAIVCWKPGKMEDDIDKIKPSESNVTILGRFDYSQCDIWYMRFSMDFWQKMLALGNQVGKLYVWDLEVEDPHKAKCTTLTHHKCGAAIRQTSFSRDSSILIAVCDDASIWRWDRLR", "sequence (Q15022 whole entry partner, species assumed)": "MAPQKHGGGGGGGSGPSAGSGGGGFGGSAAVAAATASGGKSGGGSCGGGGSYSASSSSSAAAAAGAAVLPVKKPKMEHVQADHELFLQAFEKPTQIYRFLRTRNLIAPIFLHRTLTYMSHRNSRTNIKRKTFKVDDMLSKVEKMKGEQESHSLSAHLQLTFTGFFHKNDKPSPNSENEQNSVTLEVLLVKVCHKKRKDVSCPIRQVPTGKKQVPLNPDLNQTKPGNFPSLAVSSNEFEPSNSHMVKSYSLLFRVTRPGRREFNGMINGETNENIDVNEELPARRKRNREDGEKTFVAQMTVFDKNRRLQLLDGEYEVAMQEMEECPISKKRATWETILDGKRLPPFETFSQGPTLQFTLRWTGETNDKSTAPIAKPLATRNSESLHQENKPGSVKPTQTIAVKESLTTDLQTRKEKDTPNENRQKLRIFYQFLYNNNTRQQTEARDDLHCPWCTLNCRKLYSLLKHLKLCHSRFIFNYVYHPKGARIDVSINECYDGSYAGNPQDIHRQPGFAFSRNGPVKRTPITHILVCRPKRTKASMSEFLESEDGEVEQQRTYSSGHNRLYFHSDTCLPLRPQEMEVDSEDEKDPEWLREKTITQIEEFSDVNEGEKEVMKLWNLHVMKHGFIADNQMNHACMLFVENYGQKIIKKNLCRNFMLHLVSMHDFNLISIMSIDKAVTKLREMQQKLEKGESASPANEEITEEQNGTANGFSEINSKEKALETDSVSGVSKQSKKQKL", "conditions": "cited from earlier work"}}, "data": [{"smiles": "Nc1nccc2c1ncn2[C@@H]1C=C(CO)[C@@H](O)[C@H]1O", "note": "[DZNep, 3-deazaneplanocin A]", "values": [{"measurement": "viability", "setting": "[1]; 1 μM throughout stage 5", "result": "without affecting viability"}, {"measurement": "(VMAT1+INS−) EC population removed", "setting": "[1]; 1 μM throughout stage 5, FIGS. 19-21", "result": "more than half"}, {"measurement": "proportion / differentiation of endocrine cells (CHGA+)", "setting": "[1]; stage 5", "result": "increased"}, {"measurement": "percentage of pre-SC-β cells (C-PEP+, NKX6-1+)", "setting": "[1]", "result": "increased"}, {"measurement": "progenitors cells (NKX6-1+)", "setting": "[1]; stage 5, FIG. 16", "result": "increased"}, {"measurement": "VMAT1+INS− EC population", "setting": "[1]; stage 5, FIG. 19", "result": "specific decrease"}, {"measurement": "NKX6.1-ChromA+ PH cells", "setting": "[1]; stage 5, FIG. 20", "result": "concomitant increase"}, {"measurement": "NKX6.1+INS+ SC-β cell population", "setting": "[1]; stage 5, FIG. 21", "result": "unaffected"}, {"measurement": "performance compared with other inhibitors of the same class", "setting": "[1]", "result": "outperforms other EZH2 inhibitors"}, {"measurement": "selectivity / specificity for EZH2 (in words)", "setting": "EZH2", "result": "may not be specific to EZH2"}]}, {"smiles": "CC[C@H](C)n1cc(C)c2c(C(=O)NCc3c(C)cc(C)[nH]c3=O)cc(-c3ccc(N4CCNCC4)nc3)cc21", "note": "[GSK126]", "values": [{"measurement": "proportion of all β cell types", "setting": "[1]", "result": "did not increase"}]}, {"smiles": "CC(=O)SCC(=O)c1ccc(NS(=O)(=O)c2ccc(OCCCN(C)C)cc2)nc1", "note": "[KD5170]", "values": [{"measurement": "percentage of pre-SC-β cells (C-PEP+, NKX6-1+)", "setting": "[1]", "result": "increased"}, {"measurement": "performance compared with other inhibitors of the same class", "setting": "[1]", "result": "outperforms other HDAC inhibitors"}]}, {"smiles": "O=C(CCCCCCC(=O)Nc1ccccc1)NO", "note": "[SAHA]", "values": [{"measurement": "percentage of pre-SC-β cells (C-PEP+, NKX6-1+)", "setting": "[1]", "result": "did not increase"}]}, {"smiles": "CC(/C=C/C(=O)NO)=C\\[C@@H](C)C(=O)c1ccc(N(C)C)cc1", "note": "[TSA]", "values": [{"measurement": "percentage of pre-SC-β cells (C-PEP+, NKX6-1+)", "setting": "[1]", "result": "did not increase"}]}, {"smiles": "CCCc1cc(C)[nH]c(=O)c1CNC(=O)c1cc(-c2ccc(N3CCN(C(C)C)CC3)nc2)cc2c1cnn2C(C)C", "note": "[UNC1999]", "values": [{"measurement": "proportion of all β cell types", "setting": "[1]", "result": "did not increase"}, {"measurement": "selectivity / specificity for EZH2 (in words)", "setting": "EZH2", "result": "less selective"}]}, {"smiles": "CCCC(=O)[O-].[Na+]", "note": "[sodium butyrate]", "values": [{"measurement": "percentage of pre-SC-β cells (C-PEP+, NKX6-1+)", "setting": "[1]", "result": "did not increase"}]}]}
